Experimental data published in US5552267A, “Solution for prolonged organ preservation” (priority 1994, dated 1996).
Entries after “also recorded” stand apart in the source; their conditions may differ. Where a SMILES comes first, the peptide text is derived from it.

Tests used:
[1] = tested on: heart; assay: heterotopic rat cardiac transplant, nitric oxide series, graft survival/score; type: in vivo, rat (male Sprague-Dawley); conditions: 12 h in LR
Text: Male Sprague-Dawley rats (350 grams, Camm Research, Wayne, N.J.) were used, and harvest, preservation, and transplantation procedures performed as described^8. Preservation solutions included lactated Ringer's (LR) solution (Baxter, Edison, N.J.), or LR supplemented with nitroglycerin (DuPont, Wilmington, Del.), sodium nitroprusside (Roche Laboratories, Nutley, N.J.), N^G -monomethyl-L-arginine (L-NMMA; Chembiochem, Salt Lake City, Utah), L-arginine (Sigma Chemical Co., St. Louis, Mo.), or 8-bromoguanosine3',5'monophosphate (8-Br-cGMP; Sigma). Components were combined within 4 hrs of donor cardiectomy, and preservation solutions were kept at 4° C. All of these solutions were at the pH of LR (6.6). University of Wisconsin solution (UW) was purchased from Dupont. […] Ten minutes after removal of the cross-clamp, an electrocardiogram was taken (Grass Polygraph, Quincy, Mass.) and the heart was judged by the same blinded investigators throughout based on the presence/absence of regular contractions and a transplant score (0-5, worst-best, respectively) employing the following criteria: contraction (poor=0, average=1, vigorous=2), tissue turgor (hard=0, average=1, soft=2), and color (dusky=0, pink=1).
Graft survival data was analyzed by contingency analysis (chi-square). Transplant scores, microsphere perfusion, myeloperoxidase, NO synthase, and platelet serotonin release data were analyzed using ANOVA for unpaired variables with the Tukey test used to discriminate significant differences between group means. Values are expressed as means ±SEM, with a p<0.05 considered statistically significant.

[2] = tested on: nitric oxide production in heart; assay: direct measurement of coronary vascular and endocardial NO with porphyrinic microsensor; design: species or system rat
Procedure: Direct measurement of coronary vascular and endocardial nitric oxide synthesis were made with a porphyrinic microsensor^13 using differential pulse voltammetry or amperometry. Rat hearts were explanted and preserved as described above, and studied fresh (no preservation/transplantation) or after hypothermic preservation in lactated Ringer's (LR) solution, heterotopic transplantation, and 10 minutes of reperfusion. The coronary vasculature was flushed free of blood with LR followed by 4 ml of LR supplemented with L-Arg (2 mM) and bradykinin ([…], Sigma), which was recycled (1 ml/min) through the coronary vasculature by flushing down the cross-clamped aortic root. Aliquots of perfusate were immediately transferred to an anaerobic environment for measurements and compared to an aqueous nitric oxide reference. Differential pulse voltammograms were obtained using a sensor (working electrode), saturated calomel electrode reference, and platinum wire-auxiliary electrode, with a pulse amplitude of 40 mV. Endocardial NO was measured by implanting the sensor in the septal endocardium of a freshly explanted or preserved/transplanted heart, and after the baseline stabilization, […] bradykinin was applied and NO release continuously monitored by amperometry at constant potential of 0.63 V.

[3] = tested on: cardiac graft vasculature; assay: perfusion of donor grafts by microspheres, nitric oxide series; type: in vivo, rat; conditions: 12 h preservation in LR
Procedure: Ten minutes after restoration of blood flow, 0.5 ml of 10 μm diameter microspheres (10^6 /ml) (E-Z Trac, Los Angeles, Calif.) was injected into the donor aortic root. Deposition of microspheres in ventricular tissue was assessed following alkaline hydrolysis, washing, and counting of microspheres as described^8, with results expressed as number of spheres per (40×) field per gram of ventricle. A minimum of ten fields were counted and the mean ±SEM is reported.

[4] = tested on: lung; assay: orthotopic rat left lung transplantation, cGMP series (hemodynamics, oxygenation, recipient survival); type: in vivo, rat (male Lewis); conditions: 6 h in EC
Procedure: Orthotopic rat left lung transplantation was accomplished using inbred male Lewis rats (250-300 gms), using a modification of a previously described technique^29. The donor rat was anesthetized and heparinized (500 U intravenously), and endotracheal intubation was performed by inserting a 16 gauge angiocatheter into the trachea using blunt cervical dissection, after which the rat was ventilated with room air at a constant rate (100 breaths/minute) and tidal volume (2.5 ml), using a Harvard rodent ventilator. […] The pulmonary artery (PA) and pulmonary vein (PV) were divided, the bronchus ligated with the lung partially inflated and then divided, and the lung removed. The vascular stumps were each pulled through a small plastic cylinder, and a lip of vessel was turned back around the edge and secured in place with a suture to form a "cuff." A small plastic cylinder was inserted into the bronchial stump and secured, and the lung was then wrapped in gauze and submerged in cold preservation solution for the desired interval.
The recipient rat (gender/size/strain-matched) was similarly anesthetized and intubated (ventilated with 100% oxygen), but not heparinized. A left thoracotomy was performed, the hilum was dissected, and the left bronchus, PA, and PV were isolated, cross-clamped, divided and the native lung was removed from the field. The PA and PV stumps were rinsed with heparinized saline to remove any clot. The donor lung was brought onto the surgical field, and the cylinder (bronchus) and cuffs (PA and PV) were connected rapidly to their respective structures with a simple staying suture. This cuff technique permitted rapid approximation of donor and recipient tissues with no contact of a foreign substance with the luminal vascular surface. The hilar cross-clamp was released, re-establishing blood flow, and the bronchus tie was removed, enabling gas exchange. A snare was then passed around the right PA, and a Millar catheter (2F; Millar Instruments,Houston, Tex.) was introduced through a small hole (surrounded by a pursestring) into the main PA; similarly, a Millar catheter was introduced into the left atrium (LA). A flow probe (Transonics, Ithaca, N.Y.) was then placed around the main PA. Arterial blood gas sampling performed via the left femoral artery.
Online hemodynamic monitoring was accomplished using MacLab and a Macintosh IIci computer. The hemodynamic parameters that were measured included PA pressure (mm Hg), blood flow (ml/min), LA pressure (mm Hg), as well as arterial oxygen tension (mm Hg) during inspiration of 100% oxygen; pO2 was analyzed with a model ABL-2 dissolved gas analyzer (Radiometer, Copenhagen, Denmark). Pulmonary vascular resistances (PVRs) were calculated as [mean PA pressure-LA pressure]/PA flow. The native lung supported the recipient during the period of warm ischemia (the period during which the donor lung was removed from cold preservation until the time of reperfusion, <10 min. in all instances), but immediately following rapid hemodynamic instrumentation and acquisition of baseline measurements, the native (right) PA was then ligated, and serial measurements (representative solely of the transplanted lung) were taken every five minutes for 30 minutes. Because the native lung was effectively removed from the circulation by ligation of the right PA, these measurements represent function of the transplanted lung. Recipient death was identified by the cessation of cardiac mechanical activity observed through the thoracotomy.
Preservation solutions were freshly made and coded by a technician not otherwise involved in the experiments, according to a general plan which included both control and experimental groups. […]

[5] = tested on: nitric oxide at lung surface; assay: in vivo pulmonary NO with porphyrinic microsensor; design: species or system rat; conditions: during continued reperfusion; A23187 9.5 μM
Procedure: Measurements of nitric oxide concentrations in vivo were performed with a two electrode system using a porphyrinic sensor as a working electrode and a platinum wire as an auxiliary/reference electrode. The porphyrinic sensor with a flexible base was lowered onto the exposed surface of the lung using a micromanipulator. A small piezoelectric signal (mechanically generated current) was used to indicate that the sensor had made contact with the tissue surface. NO measurements were begun once the flexible sensor assumed an L-shaped configuration on the tissue surface and the platinum wire was connected to adjacent tissue. Continous amperometric (current-time) measurements were obtained at a constant potential of 0.68 V, during the period of warm ischemia (after the lung was sewn in place but not yet reperfused) and continously as the vascular cross-clamp was released and reperfusion initiated. Topical application of the calcium ionophore (A23187, 9.5 μM; Sigma) and superoxide dismutase (100 U/ml; Sigma) was applied as monitoring was continued.

[6] = tested on: heart; conditions: in vivo; cited from earlier work
[7] = tested on: heart; assay: heterotopic rat cardiac transplant, cAMP series, graft survival/score; type: in vivo, rat (male Sprague-Dawley); conditions: 12 h in LR
Text: Preservation solutions included lactated Ringer's (LR) solution Baxter, Edison, N.J.), or LR supplemented with rolipram ZK 62 711, Schering AG, Berlin, Germany), indolidan LY195115, Lilly Research Laboratories, Indianapolis, Ind.), sodium butyrate, 8-bromoadenosine, 8-bromoadenosine 3',5'monophosphate (8-Br-cAMP; Sigma Chemical Co., St. Louis, Mo.), the Rp -isomer of adenosine 3',5'monophosphorothioate (Rp -cAMPS; Biolog, La Jolla, Calif.), the Sp isomer of adenosine 3',5'monophosphorothioate (Sp -cAMPS; Biolog), and N^6,O^2' -dibutyryl adenosine 3',5'monophosphate sodium (db-cAMP; Aldrich, Milwaukee, Wis.). Components were combined within 4 hrs of donor cardiectomy, and preservation solutions were kept at 4° C. University of Wisconsin solution (UW)(2-4 was purchased from Dupont (Wilmington, Del.).
Donor Cardiectomy. Male Sprague-Dawley rats (350-450 grams, Camm Research, Wayne, N.J.) were anesthetized, heparinized (1000 units of heparin given intravenously), and the donor heart removed in the following manner; a midline incision was performed, followed by rapid cardioplegic arrest with 5 ml of cold (4° C.), high potassium solution (NACl, 0.9%, and KCl, 40 mEq/L). The heart was maintained at 4° C. throughout the harvest procedure by the application of a cold saline soaked gauze over its surface. […] The aortic root was flushed with ≈15 ml of the cold preservation solution until the coronary arteries became visibly clear, and the heart remained in the cold storage solution for the indicated duration until the time of transplantation.
Heterotopic Transplant. The same breed/size of rat was used, and similarly anesthetized, but not given heparin. A midline abdominal incision was made, and the infrarenal aorta and vena cava were occluded with a side-biting vascular clamp and longitudinal incisions were made in each vessel. The donor heart was removed from the preservation solution and kept moist with saline-soaked gauze. […] Blood flow was restored to the graft (by removal of the clamp) exactly one hour after removal from the cold preservation solution. […] Ten minutes after removal of the cross-clamp, an electrocardiogram was taken (Grass Polygraph, Quincy, Mass.) and the heart was judged by the same blinded investigators throughout based on the presence/absence of regular contractions and a transplant score (0-5, worst-best, respectively) employing the following criteria: contraction (poor=0, average=1, vigorous=2), tissue turgor (hard=0, average=1, soft=2), and color (dusky=0, pink=1). […] The heterotopic cardiac transplant experiments performed in these studies were done by a single surgeon after establishment of this model and acquisition of surgical expertise, with control and experimental groups interspersed throughout the study period to prevent a time-dependent bias pertaining to surgical skills.
Statistics. Graft survival data and transplant scores were analyzed using the Kruskal-Wallis non-parametric analysis of variance (38). Comparisons of individual treatments were performed using the procedure described by Dunn (39). In addition, the effect of db-cAMP on the time-course of graft failure was quantified by multivariate logistic regression. Graft myeloperoxidase data, microsphere data, and cAMP/adenylate cyclase/phosphodiesterase data from experiments with cultured vascular smooth muscle cells were analyzed by t-tests when 2 treatments were performed or by analysis of variance when 3 or more treatments were performed. In the latter case, post-hoc comparison of treatment groups were tested using Tukey's procedure. Values are expressed as means ±SEM, with a p <0.05 considered statistically significant.

[8] = tested on: cGMP-dependent protein kinase; conditions: relative to cGMP; cited from earlier work

N=C(NCCC[C@H](N)C(=O)O)N[N+](=O)[O-] [N^ω -nitro-L-arginine]
effect on graft preservation (words) [1]: blocked the beneficial effects of L-Arg

NC(N)=NCCC[C@H](NC(=O)[C@H](Cc1ccccc1)NC(=O)[C@@H]1CCCN1C(=O)[C@H](CO)NC(=O)[C@H](Cc1ccccc1)NC(=O)CNC(=O)[C@@H]1CCCN1C(=O)[C@@H]1CCCN1C(=O)[C@@H](N)CCCN=C(N)N)C(=O)O [bradykinin] (H-RPPGFSPFR-OH)
endocardial NO plateau following bradykinin challenge ([2]; freshly explanted heart): 0.67 ± 0.06 µM
endocardial NO plateau following bradykinin challenge ([2]; preserved (38 hrs) heart): 0.17 ± 0.05 µM

CNC(=N)NCCC[C@H](N)C(=O)O [L-NMMA, N^G -monomethyl-L-arginine]
effect on graft preservation (words) [1]: blocked the beneficial effects of L-Arg
graft survival ([1]; NTG 0.1 mg/ml where added): 0%
effect on graft preservation (words) ([1]; listed as N^G -monomethyl-L-arginine): no survival of cardiac grafts; also recorded: poor preservation
effect on NO levels ([2]; transplanted hearts): blocked further NO production
graft blood flow [3]: decreased blood flow

Nc1nc2c(nc(Br)n2[C@@H]2O[C@H](COP(=O)(O)O)[C@@H](O)[C@H]2O)c(=O)[nH]1 [8-bromoguanosine 5'monophosphate]
effect on lung preservation [4]: without effect

CNc1ccc2oc(C[C@H]3O[C@@]4(CC[C@H]3C)O[C@H]([C@H](C)C(=O)c3ccc[nH]3)[C@H](C)C[C@H]4C)nc2c1C(=O)O [A23187]
effect on decline in NO [5]: did not alter the decline in NO

O=NO [acidified sodium nitrite, sodium nitrite]
effect in cardiac ischemia models [6]: blunt myocardial injury and neutrophil accumulation during reperfusion; also recorded: improve vascular function and outcome

CC1(C)C(=O)Nc2ccc(C3=NNC(=O)CC3)cc21 [indolidan]
effect on cardiac preservation [7]: uniformly enhanced preservation

CCCC(=O)Nc1ncnc2c1ncn2[C@@H]1O[C@@H]2COP(=O)(O)O[C@H]2[C@H]1O [mb-cAMP, N^6 -monobutyryladenosine 3'5'monophosphate]
fold less potent than cGMP in activating cGMP-dependent protein kinase [8]: 313 fold

N=c1c[n+](N2CCOCC2)[n-]o1 [SIN-1]
effect in cardiac ischemia models [6]: improve vascular function and outcome

Nc1nc2c(nc(Br)n2[C@@H]2O[C@H](CO)[C@@H](O)[C@H]2O)c(=O)[nH]1 [8-Br-guanosine]
effect on lung preservation [4]: without effect

Nc1ncnc2c1nc(Br)n2[C@@H]1O[C@@H]2COP(=O)(O)O[C@H]2[C@H]1O [8-Br-cAMP, 8-bromoadenosine 3'5'monophosphate]
fold less potent than cGMP in activating cGMP-dependent protein kinase [8]: 53 fold
concentration for optimal/maximal preservation [7]: 0.1 mM
effect on cardiac preservation [7]: prolonged graft survival
graft survival ([7]; 8-Br-cAMP 0.1 mM): 100%

N=C(N)NCCC[C@H](N)C(=O)O [L-Arg, L-arginine]
effect on graft preservation (words) [1]: enhanced preservation
effect on graft preservation (words) ([1]; listed as L-arginine): enhanced graft survival
graft blood flow [3]: enhanced blood flow
effect in cardiac ischemia models [6]: improve vascular function and outcome
